Measured values: patent US20110009379A1, “INDOLINONE COMPOUND” (ASTELLAS PHARMA INC., priority 2008, published 2011)

Assays:
[1] = target: T1, human TRPA1 (Homo sapiens, UniProt O75762, K186N/R3C/R58T); experiment: Measurement of TRPA1 activation activity (intracellular calcium, FLIPR, HEK293 cells stably expressing human TRPA1); format: cell-based; conditions: change of intracellular calcium concentration
T1 construct: expressed in transfected cells; pcDNA3.1(+) vector)
Experimental: 10 ng of Human brain mRNA (Clontech Co.) was treated with DNase, and then was reverse transcribed using kit for reverse transcription-polymerase chain reaction (RT-PCR) (SUPERSCRIPT First-Strand Synthesis System for RT-PCR; Invitrogen Co.) to synthesize the first strand cDNA. PCR using a hot start method was performed using the first strand cDNA as a template and Taq DNA polymerase (LA Taq DNA polymerase; TAKARA SHUZO). The PCR was performed using oligonucleotides consisting of the nucleotide sequences, represented by sequence number 2 as a sense primer and sequence number 3 as an antisense primer, in which firstly, heat denaturation was performed at 98° C. (1 minute), and then a cycle of 98° C. (15 seconds)/56° C. (30 seconds)/72° C. (5 minutes) was repeated 35 times. As a result, a DNA fragment of about 3.3 kbp was amplified.
The DNA fragment was cloned to pCR-TOPO vector using a cloning kit (TOPO XL PCR Cloning Kit; Invitrogen). The obtained plasmid DNA was digested with restriction enzymes KpnI and HindIII, and then was cloned using plasmid pcDNA 3.1(+)(Invitrogen). In this connection, the plasmid pcDNA 3.1(+) has a promoter sequence derived from cytemegalovirus, and can be used in order to express a protein in animal cells.
The nucleotide sequences of the obtained clones were analyzed using DNA sequencer (ABI3700 DNA Sequencer; Applied Biosystems) by dideoxyterminator method, and the nucleotide sequence represented by sequence number 1 was obtained. Furthermore, when these sequences were translated to amino acid sequences, the amino acid sequence represented by sequence number 1 was obtained.
After constructing the expression vector of the human TRPA1 gene, selection by G418 was performed from the HEK293 cells which temporarily expressed TRPA1 by transfection operation to obtain cells stably expressing TRPA1. The above operation was performed according to known methods (experimental medicine supplementary volume, “Cultivation Cell Experimental Methods for Molecular Biology Study” published by Toshio Kuroki, Namho Hue and Kazuhiro Chida, 1995, Yodosha).
In order to measure the change of the intracellular calcium concentration in the cells stably expressing the human TRPA1, the change of the intracellular calcium concentration when a compound to be tested was added was measured using FLIPR (Molecular Device).
In order to measure the change of the intracellular calcium concentration with FLIPR, the following pretreatment was performed. First of all, assay buffer was prepared which was for adding fluorescent pigment Fluo4-AM (DOJIN) to the cells or washing the cells just before performing FLIPR assay. To a solution (hereinafter, HBSS/HEPES solution) where 20 mL of 1M HEPES (pH 7.4; Invitrogen) was added to 1000 mL of a physiological saline buffer (Hank's Balanced Salt Solution; HBSS) (Invitrogen), was added 10 mL of a solution where 710 mg of probenecid (Sigma) was dissolved into 5 mL of 1M aqueous NaOH solution and 5 mL of HBSS/HEPES solution was further added and mixed, and the assay buffer was thus prepared. Then, 50 μg of Fluo4-AM was dissolved into 22 μL of DMSO (DOJIN), the same amount of 20% pluronic acid (Molecular Probes) was added thereto and mixed, and the mixture was added to the 10.6 mL of the assay buffer where 105 μL of fetal bovine serum was added, to prepare a fluorescent pigment solution. The medium of the cells stably expressing TRPA1 was removed, 100 μL per well of the fluorescent pigment solution was dispensed immediately, followed by cultivation in a CO2 cultivator for 1 hour, and the fluorescent pigment was soaked in the cells. The cells after cultivation were washed using the assay buffer, followed by being set in FLIPR. Furthermore, a test sample, which was added to the cells stably expressing TRPA1, was prepared by using the assay buffer, and at the same time, was set in FLIPR. […]

[2] = tested on: RIN14B cells; experiment: Measurement of 5-HT secretion from RIN14B; format: cell-based; conditions: 20 minutes at 37° C., relative to 300 μM allyl isothiocyanate = 100%, HBSS only = 0%
Experimental: In order to investigate whether TRPA1 is related to 5-HT release, 5-HT secretion promotion from RIN14B by a compound to be tested was measured.
The RIN14B cells cultivated in a petri dish were scraped using Phosphate buffered saline (PBS) containing 1 mM EDTA, distributed into 24 well plates, and cultivated for 2 days. As a medium, a medium in which 10% fetal bovine serum (ICN), 100 U/mL penicillin, and 100 μg/mL streptomycin was added to RPMI1640 (Invitrogen), was used. The cells were washed once with HBSS (Invitrogen) and added with 0.1% BSA and 10 μM fluoxetine (TOCRIS Co.), followed by dilution with the above HBSS, the prepared compound to be tested was added to RIN14B cells, followed by cultivation at 37° C., under 5% CO2 condition for 20 minutes. After cultivation, supernatant of cells was recovered, followed by freeze preservation. The content of 5-HT in the supernatant was measured by a commercial serotonin immunoassay kit (Beckman). 5-HT release promotion activation value (%) was evaluated as a relative value when the 5-HT release promotion value by 300 μM of allyl isothiocyanate was defined as 100%, and the 5-HT release promotion value by HBSS for dilution only was defined as 0%.

[3] = target: Cytochrome P450(2D6) (Homo sapiens, UniProt P10635); experiment: Cytochrome P450(2D6) enzyme inhibition test; format: in vitro ADME; conditions: CYP2D6, fluorescent substrate 1.5 μmol/L, 37° C., 20 minutes
Experimental: The experiment was performed in accordance with the method of Crespi et al. (Analytical Biochemistry, 248, 188-190, 1997).
As a substrate, 3-[2-(N,N-diethyl-N-methylamino)ethyl]-7-methoxy-4-methyl coumarine (1.5 μmol/L) a compound to be tested (3.1×10^−7 to 2×10^−5 M) and an enzyme (2.5×10^−8 M) were incubated at 37° C. for 20 minutes in total of […] of 100 mM phosphorous buffer (pH=7.4) including 8.2 mM NADP+, 0.41 mM glucose-6-phosphate, 0.41 mM MgCl2 and 0.4 Units/mL glucose-6-phosphate dehydrogenase, using 96 well plates. Then, 0.5 M aqueous 2-amino-2-hydroxymethyl-1,3-propandiol solution containing 80% acetonitrile was added to stop the reaction, fluorescence intensity (excitation wavelength; 390 nm, fluorescent wavelength; 460 nm) was measured with a fluorescent plate reader. An inhibition ratio was calculated with the following formula, and the test compound concentration when the inhibition ratio is 50% (IC50) was obtained.
C1: fluorescence intensity in the presence of the test compound and enzyme at know concentrations, and the substrate
C0: fluorescence intensity in the presence of the enzyme and substrate, without the test compound
B1: fluorescence intensity of blank well

[4] = tested on: delay of discharging time induced by loperamide in mice; experiment: Loperamide induced constipation model (glass bead discharging time); format: in vivo; conditions: Mus musculus; mice (Slc:ddY, male), 0.3 mg/kg loperamide subcutaneously, compound orally; read-out: ED50 (amount which suppresses 50% of the delay of discharging time induced by loperamide)
Experimental: It has been known that loperamide as a μ opioid receptor agonist causes convulsive contraction in intestinal tracts. Thus, a delay in the intestinal transport ability due to loperamide is thought as a constipation IBS model.
Mice (Slc:ddY, five-week old, male) fasted from the previous evening of the experiment. On the day of the experiment, the mice were acclimatized to cages for measurement for 1 hour or more, and 0.3 mg/kg of loperamide was administered subcutaneously. After 30 minutes, a compound to be tested was administered orally, ether anesthesia was applied to the mice immediately thereafter, glass beads having diameter of 3 mm were inserted to 2 cm from anus. The mice were returned to the cages for measurement, and the time from waking to discharging of the glass beads was measured. Furthermore, the compound to be tested was dissolved into 10% DMSO, 10% cremophor, and 80% distillated water.
As a result, it has been recognized that there was a delay in the beads discharging time of the loperamide administration group (vehicle group) in comparison with the loperamide non-administration group (control group).
ED50 values (amount of the compound to be tested which suppresses 50% of the delay of discharging time induced by loperamide) of some of the compounds of the formula (I) are shown in Table 3. In this connection, comparative compound 1 is the same compound as comparative compound 1 in Test Example 4.

T1 sequence (O75762 whole entry R3C/R58T/K186N): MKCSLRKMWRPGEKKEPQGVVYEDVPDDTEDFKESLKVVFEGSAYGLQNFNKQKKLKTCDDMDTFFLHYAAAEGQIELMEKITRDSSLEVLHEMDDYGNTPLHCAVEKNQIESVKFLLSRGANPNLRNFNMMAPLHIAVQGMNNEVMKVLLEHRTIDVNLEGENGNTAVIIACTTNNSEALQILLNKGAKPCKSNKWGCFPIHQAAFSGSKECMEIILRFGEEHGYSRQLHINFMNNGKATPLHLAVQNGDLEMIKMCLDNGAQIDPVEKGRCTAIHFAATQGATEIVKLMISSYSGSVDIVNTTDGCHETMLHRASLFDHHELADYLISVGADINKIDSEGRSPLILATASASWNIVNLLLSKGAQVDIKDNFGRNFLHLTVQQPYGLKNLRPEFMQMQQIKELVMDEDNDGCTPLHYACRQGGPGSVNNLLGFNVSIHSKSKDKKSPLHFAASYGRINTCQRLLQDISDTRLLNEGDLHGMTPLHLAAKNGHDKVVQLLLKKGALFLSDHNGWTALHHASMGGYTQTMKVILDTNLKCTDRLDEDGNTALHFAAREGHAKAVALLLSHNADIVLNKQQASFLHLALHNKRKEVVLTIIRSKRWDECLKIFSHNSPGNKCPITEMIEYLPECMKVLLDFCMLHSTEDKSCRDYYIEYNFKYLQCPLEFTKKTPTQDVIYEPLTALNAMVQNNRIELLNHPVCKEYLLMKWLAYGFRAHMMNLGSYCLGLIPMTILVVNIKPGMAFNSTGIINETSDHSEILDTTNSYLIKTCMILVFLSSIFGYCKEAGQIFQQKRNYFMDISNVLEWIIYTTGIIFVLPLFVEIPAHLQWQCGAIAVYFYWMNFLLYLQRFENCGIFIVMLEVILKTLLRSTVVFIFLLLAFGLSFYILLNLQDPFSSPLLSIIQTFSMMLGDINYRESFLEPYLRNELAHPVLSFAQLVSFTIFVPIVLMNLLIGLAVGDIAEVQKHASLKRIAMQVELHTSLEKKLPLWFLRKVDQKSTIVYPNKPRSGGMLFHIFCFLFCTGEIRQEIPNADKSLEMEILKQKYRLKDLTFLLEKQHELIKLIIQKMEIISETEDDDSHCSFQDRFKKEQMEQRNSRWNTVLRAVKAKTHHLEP
Chain of Cytochrome P450(2D6) (P10635 whole entry): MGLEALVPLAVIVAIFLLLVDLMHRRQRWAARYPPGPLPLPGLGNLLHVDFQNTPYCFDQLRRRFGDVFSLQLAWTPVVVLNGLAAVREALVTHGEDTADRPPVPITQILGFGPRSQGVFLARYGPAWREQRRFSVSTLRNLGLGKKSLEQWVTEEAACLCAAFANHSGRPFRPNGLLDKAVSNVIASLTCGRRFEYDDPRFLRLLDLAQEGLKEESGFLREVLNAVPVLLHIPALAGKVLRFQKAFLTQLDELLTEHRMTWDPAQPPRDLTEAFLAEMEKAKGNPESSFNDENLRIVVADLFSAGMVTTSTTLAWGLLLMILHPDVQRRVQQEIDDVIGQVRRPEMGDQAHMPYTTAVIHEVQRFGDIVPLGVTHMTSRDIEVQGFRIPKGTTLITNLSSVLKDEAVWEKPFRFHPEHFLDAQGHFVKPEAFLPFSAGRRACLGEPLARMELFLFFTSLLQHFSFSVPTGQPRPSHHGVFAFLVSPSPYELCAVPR

Row | EC50 [1] [µM] | melting point [°C] | IC50 [3] [µM] | SMILES | 5-HT release promotion activation value [2] [%] | ED50 [4] [mg/kg]
1 | 4.63 |  |  | CC(C)CN1C(=O)/C(=C/C(=O)O)c2cc(F)ccc21 [Example 27] | 40.0 | 
2 | 4.4 | 137 to 139 | > 20 | O=C(O)/C=C1/C(=O)N(CC2CCCCC2)c2ccccc21 [Example 15, (2E)-[1-(cyclohexylmethyl)-2-oxo-1,2-dihydro-3H-indol-3-ylidene]acetic acid] | 97.4 | 
3 | 3 | 140 to 142 | > 20 | O=C(O)/C=C1/C(=O)N(CC2CCCC2)c2ccccc21 [Example 26, (2E)-[1-(cyclopentylmethyl)-2-oxo-1,2-dihydro-3H-indol-3-ylidene]acetic acid] | 102.5 | 0.51
4 | 1.2 |  |  | COC(=O)c1cccc(CN2C(=O)/C(=C/C(N)=O)c3ccccc32)c1 [Example 4, methyl 3-{[(3E)-3-(2-amino-2-oxoethylidene)-2-oxo-2,3-dihydro-1H-indol-1-yl]methyl}benzoate] | 144.6 | 
